Publication PMC7506137, “Selective Phosphodiesterase 1 Inhibitor BTTQ Reduces Blood Pressure in Spontaneously Hypertensive and Dahl Salt Sensitive Rats: Role of Peripheral Vasodilation” (Frontiers in Physiology, 2020)
Like-named read-outs stand apart in the source and are kept apart here.

Assay: Plasma exposure (dried blood spot) after single oral dose
Format: in vivo
Conditions: male, Sprague Dawley, rat, whole blood (dried blood spot), po
Method: Male Sprague Dawley rats at 6 to 7 weeks were dosed orally by p.o. gavage with different doses of BTTQ formulated in 1% hydroxyethlycellulose (Dow Corning, Midland, MI, United States) (w/v), 0.25% polysorbate 80 (Sigma-Aldrich, St. Louis, MO, United States) (v/v), and 0.05% antifoam (v/v; Dow Corning, Midland, MI, United States) in purified water. Following dosing, ear temperature was measured by using a k-type thermocouple probe digital thermometer (Cole Parmer) every hour for 6 h and then at 24 h. Blood samples for plasma exposure measurement were obtained at the same time. Blood was collected via a tail snip directly into a 20-μL EDTA-coated capillary and immediately spotted onto a Whatman DMPK-C DBS card (GE Healthcare Bio-Sciences). Tail snips were performed by removing approximately 1 mm of the tail by using a scalpel. Blood flow was initiated by gentle squeezing of the tail. No analgesia or anesthesia was used during blood collections. A single sample and spot were collected per time point. The DBS cards were allowed to dry for approximately 2 h at room temperature, after which the cards were placed in a zip-top bag, stored, and shipped at ambient temperature.

[1] = 1 mg/kg, oral 1 mg/kg, FU 0.053, read-out: Unbound Concentration, individual animals
[2] = 1 mg/kg, oral 1 mg/kg, dried blood spot, read-out: Concentration, Mean
[3] = 1 mg/kg, oral 1 mg/kg, dried blood spot, read-out: Concentration, individual animals
[4] = 1 mg/kg, oral 1 mg/kg, FU 0.053, read-out: Unbound Concentration, Mean
[5] = 3 mg/kg, oral 3 mg/kg, FU 0.053, read-out: Unbound Concentration, Mean
[6] = 3 mg/kg, oral 3 mg/kg, FU 0.053, read-out: Unbound Concentration, individual animals
[7] = 3 mg/kg, oral 3 mg/kg, dried blood spot, read-out: Concentration, Mean
[8] = 3 mg/kg, oral 3 mg/kg, dried blood spot, read-out: Concentration, individual animals

O=c1c2nnc(C3(C4CC4)CC3)n2c2c(n1CC1CC1)CCCC2 [BTTQ, 1-[1,1′-bi(cyclopropyl)-1-yl]-5-(cyclopropylmethyl)-6,7,8,9-tetrahydro[1,2,4]triazolo[4,3-A]quinoxaline-4(5H)-one]
concentration at 2 h [1]: 88.5 nM | concentration at 2 h [2]: 1650 nM | concentration at 2 h [3]: 1670 nM | concentration at 3 h [4]: 62.1 nM | concentration at 3 h [1]: 64.1 nM | concentration at 3 h [2]: 1170 nM | concentration at 3 h [3]: 1210 nM | concentration at 4 h [4]: 57.3 nM | concentration at 4 h [1]: 47.7 nM | concentration at 4 h [2]: 1080 nM | concentration at 4 h [3]: 900 nM | concentration at 5 h [4]: 49.6 nM | concentration at 5 h [1]: 41.1 nM | concentration at 5 h [2]: 935 nM | concentration at 5 h [3]: 775 nM | concentration at 6 h [4]: 41.3 nM | concentration at 6 h [1]: 41.3 nM | concentration at 6 h [2]: 780 nM | concentration at 6 h [3]: 779 nM | concentration at 24 h [4]: 2.13 nM | concentration at 24 h [2]: 40.2 nM | concentration at 1 h [5]: 197 nM | concentration at 1 h [6]: 142 nM | concentration at 1 h [7]: 3710 nM | concentration at 1 h [8]: 2670 nM | concentration at 2 h [5]: 195 nM | concentration at 2 h [6]: 166 nM | concentration at 2 h [7]: 3690 nM | concentration at 2 h [8]: 3140 nM | concentration at 3 h [5]: 168 nM | concentration at 3 h [6]: 169 nM | concentration at 3 h [7]: 3170 nM | concentration at 3 h [8]: 3180 nM | concentration at 4 h [5]: 148 nM | concentration at 4 h [6]: 155 nM | concentration at 4 h [7]: 2790 nM | concentration at 4 h [8]: 2920 nM | concentration at 5 h [5]: 115 nM | concentration at 5 h [6]: 142 nM
